Test results from publication PMC9851200, “Multiparameter phenotypic screening for endogenous TFEB and TFE3 translocation identifies novel chemical series modulating lysosome function” (Autophagy, 2022).

What was measured:
Assay type in all cases: binding
[1] = molecular target: kinases (KINOMEscan panel) (Homo sapiens, UniProt P00519, Q252H); settings: NEW KINOMEscan; for KINOMEscan ABL1(Q252H)-nonphosphorylated: kinase ABL1(Q252H)-nonphosphorylated; for KINOMEscan ABL1(Q252H)-phosphorylated: kinase ABL1(Q252H)-phosphorylated
[2] = molecular target: T1, kinases (KINOMEscan panel) (Homo sapiens, UniProt P57078); settings: RIPK4; NEW KINOMEscan
T1 sequence (P57078 1-832): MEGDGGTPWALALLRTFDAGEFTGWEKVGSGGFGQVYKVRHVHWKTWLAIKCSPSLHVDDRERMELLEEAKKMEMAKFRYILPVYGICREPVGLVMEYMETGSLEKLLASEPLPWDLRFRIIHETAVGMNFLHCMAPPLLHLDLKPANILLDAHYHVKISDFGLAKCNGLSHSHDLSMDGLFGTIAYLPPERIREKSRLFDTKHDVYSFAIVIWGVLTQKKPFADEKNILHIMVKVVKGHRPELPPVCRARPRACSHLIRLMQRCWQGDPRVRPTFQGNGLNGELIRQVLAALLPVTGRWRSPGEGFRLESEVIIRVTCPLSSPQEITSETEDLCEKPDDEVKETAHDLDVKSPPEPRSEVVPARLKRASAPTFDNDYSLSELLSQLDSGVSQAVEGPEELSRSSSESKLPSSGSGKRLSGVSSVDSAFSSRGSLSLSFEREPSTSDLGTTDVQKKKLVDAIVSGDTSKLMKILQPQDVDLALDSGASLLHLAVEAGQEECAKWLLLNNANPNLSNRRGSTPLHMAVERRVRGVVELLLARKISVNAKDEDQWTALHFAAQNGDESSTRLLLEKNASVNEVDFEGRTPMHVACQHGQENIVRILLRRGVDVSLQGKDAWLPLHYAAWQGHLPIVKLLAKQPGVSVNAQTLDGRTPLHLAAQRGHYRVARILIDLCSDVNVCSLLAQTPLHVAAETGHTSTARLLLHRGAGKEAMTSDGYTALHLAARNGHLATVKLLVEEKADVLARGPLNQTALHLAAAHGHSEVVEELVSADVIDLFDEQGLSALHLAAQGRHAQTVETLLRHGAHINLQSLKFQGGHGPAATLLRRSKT

[3] = molecular target: T2, kinases (KINOMEscan panel) (Homo sapiens, UniProt O14920)
T2 sequence (O14920 1-756): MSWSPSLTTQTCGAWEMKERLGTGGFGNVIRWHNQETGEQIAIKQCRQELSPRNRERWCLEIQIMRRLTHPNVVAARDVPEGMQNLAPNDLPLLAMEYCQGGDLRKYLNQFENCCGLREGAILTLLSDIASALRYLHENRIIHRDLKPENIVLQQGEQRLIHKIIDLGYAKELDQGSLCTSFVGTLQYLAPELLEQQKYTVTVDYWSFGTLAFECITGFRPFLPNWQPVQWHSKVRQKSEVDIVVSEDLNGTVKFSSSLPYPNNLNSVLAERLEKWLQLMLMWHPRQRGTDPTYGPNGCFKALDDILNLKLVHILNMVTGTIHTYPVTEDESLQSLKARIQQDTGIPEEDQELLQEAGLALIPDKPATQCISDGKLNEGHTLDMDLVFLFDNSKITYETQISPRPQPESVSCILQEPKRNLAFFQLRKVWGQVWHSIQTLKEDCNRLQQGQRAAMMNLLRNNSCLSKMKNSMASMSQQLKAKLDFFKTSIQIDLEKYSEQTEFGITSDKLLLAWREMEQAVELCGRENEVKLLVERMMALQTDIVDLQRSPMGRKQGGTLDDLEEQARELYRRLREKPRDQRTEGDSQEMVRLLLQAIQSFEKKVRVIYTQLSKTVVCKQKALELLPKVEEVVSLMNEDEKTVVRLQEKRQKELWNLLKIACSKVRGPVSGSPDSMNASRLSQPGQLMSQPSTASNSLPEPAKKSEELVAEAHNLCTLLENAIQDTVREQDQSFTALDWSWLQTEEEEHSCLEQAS

[4] = molecular target: kinases (KINOMEscan panel) (Homo sapiens, UniProt P04626); settings: kinase ERBB2; NEW KINOMEscan
[5] = molecular target: kinases (KINOMEscan panel) (Plasmodium falciparum, UniProt P62344); settings: PFCDPK1(P.falciparum); NEW KINOMEscan
[6] = molecular target: kinases (KINOMEscan panel) (Homo sapiens, UniProt P54756); settings: kinase EPHA5; NEW KINOMEscan
[7] = molecular target: kinases (KINOMEscan panel) (Homo sapiens, UniProt P15056); settings: BRAF; NEW KINOMEscan
[8] = molecular target: kinases (KINOMEscan panel) (Homo sapiens, UniProt O96013); settings: PAK4; NEW KINOMEscan
[9] = molecular target: kinases (KINOMEscan panel) (Homo sapiens, UniProt Q96RR4); settings: CAMKK2; NEW KINOMEscan
Chain of kinases (KINOMEscan panel) (Homo sapiens, UniProt Q96RR4) (Q96RR4 whole entry): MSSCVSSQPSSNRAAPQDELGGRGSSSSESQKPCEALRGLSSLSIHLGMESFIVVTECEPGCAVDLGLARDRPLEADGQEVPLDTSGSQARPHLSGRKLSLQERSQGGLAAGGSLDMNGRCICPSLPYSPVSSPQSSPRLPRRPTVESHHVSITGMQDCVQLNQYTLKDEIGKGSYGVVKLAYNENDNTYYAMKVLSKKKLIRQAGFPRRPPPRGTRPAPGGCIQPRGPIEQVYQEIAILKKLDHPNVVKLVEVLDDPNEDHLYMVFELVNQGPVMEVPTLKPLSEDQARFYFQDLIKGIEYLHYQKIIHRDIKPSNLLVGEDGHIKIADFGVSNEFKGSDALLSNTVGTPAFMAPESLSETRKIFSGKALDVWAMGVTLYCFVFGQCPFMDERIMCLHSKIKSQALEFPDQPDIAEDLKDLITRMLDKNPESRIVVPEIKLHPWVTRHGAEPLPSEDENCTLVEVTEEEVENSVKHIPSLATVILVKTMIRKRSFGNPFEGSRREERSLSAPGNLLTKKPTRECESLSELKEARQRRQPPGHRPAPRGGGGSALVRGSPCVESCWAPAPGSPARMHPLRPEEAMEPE

Chain of kinases (KINOMEscan panel) (Homo sapiens, UniProt P54756) (P54756 25-1037): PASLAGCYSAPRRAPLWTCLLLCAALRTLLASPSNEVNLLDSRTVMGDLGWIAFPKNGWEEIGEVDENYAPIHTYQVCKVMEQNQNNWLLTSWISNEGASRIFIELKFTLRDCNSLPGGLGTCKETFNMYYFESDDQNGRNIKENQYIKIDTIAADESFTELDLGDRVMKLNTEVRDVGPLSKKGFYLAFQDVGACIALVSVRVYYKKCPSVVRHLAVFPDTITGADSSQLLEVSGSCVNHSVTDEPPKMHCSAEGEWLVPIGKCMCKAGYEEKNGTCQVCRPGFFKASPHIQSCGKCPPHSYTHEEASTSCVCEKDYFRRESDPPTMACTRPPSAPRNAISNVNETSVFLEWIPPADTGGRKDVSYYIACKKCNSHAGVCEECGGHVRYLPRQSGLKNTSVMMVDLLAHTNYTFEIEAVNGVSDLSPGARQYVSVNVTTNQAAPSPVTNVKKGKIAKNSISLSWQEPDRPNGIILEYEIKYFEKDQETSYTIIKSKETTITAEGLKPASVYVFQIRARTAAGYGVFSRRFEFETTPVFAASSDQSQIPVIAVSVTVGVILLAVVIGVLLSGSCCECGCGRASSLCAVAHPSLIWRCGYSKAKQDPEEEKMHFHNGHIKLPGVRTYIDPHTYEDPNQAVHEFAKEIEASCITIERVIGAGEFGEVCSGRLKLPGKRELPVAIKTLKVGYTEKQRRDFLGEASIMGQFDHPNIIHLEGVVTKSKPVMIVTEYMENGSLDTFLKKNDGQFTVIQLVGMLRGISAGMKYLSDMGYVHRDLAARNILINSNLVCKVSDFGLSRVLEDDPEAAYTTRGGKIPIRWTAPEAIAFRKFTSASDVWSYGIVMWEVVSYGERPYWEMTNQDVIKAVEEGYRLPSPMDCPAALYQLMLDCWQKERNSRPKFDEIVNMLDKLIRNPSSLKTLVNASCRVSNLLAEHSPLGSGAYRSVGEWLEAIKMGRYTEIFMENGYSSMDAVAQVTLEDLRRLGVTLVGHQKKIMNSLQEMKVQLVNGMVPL
Chain of kinases (KINOMEscan panel) (Plasmodium falciparum, UniProt P62344) (P62344 whole entry): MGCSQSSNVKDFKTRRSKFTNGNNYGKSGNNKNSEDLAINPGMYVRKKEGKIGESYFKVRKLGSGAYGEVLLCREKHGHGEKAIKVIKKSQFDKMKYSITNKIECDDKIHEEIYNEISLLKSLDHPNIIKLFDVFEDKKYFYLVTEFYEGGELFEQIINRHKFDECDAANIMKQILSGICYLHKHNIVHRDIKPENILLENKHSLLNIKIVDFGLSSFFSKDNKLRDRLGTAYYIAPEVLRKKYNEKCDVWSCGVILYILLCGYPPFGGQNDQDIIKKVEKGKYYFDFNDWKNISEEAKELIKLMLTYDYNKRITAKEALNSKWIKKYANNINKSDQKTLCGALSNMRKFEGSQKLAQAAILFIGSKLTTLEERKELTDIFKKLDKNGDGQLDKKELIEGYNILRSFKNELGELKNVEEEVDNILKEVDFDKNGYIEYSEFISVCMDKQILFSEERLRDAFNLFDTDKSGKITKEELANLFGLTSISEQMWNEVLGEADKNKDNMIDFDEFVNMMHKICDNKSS
Chain of kinases (KINOMEscan panel) (Homo sapiens, UniProt O96013) (O96013 whole entry): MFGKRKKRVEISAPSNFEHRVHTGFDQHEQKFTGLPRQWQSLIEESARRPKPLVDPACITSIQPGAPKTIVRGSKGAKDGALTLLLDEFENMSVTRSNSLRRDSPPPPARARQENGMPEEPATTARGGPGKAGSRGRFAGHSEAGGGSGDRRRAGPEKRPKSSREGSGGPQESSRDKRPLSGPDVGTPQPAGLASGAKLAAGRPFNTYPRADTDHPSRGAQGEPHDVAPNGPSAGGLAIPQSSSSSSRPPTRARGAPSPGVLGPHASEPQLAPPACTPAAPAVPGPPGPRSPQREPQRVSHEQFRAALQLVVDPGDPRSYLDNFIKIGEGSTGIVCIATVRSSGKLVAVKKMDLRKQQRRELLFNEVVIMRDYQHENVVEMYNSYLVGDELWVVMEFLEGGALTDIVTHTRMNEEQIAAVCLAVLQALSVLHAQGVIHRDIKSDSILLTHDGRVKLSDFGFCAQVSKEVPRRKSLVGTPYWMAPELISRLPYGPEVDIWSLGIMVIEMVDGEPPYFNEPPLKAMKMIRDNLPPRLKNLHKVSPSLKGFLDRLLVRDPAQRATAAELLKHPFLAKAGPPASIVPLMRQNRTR
Chain of kinases (KINOMEscan panel) (Homo sapiens, UniProt P04626) (P04626 23-1255): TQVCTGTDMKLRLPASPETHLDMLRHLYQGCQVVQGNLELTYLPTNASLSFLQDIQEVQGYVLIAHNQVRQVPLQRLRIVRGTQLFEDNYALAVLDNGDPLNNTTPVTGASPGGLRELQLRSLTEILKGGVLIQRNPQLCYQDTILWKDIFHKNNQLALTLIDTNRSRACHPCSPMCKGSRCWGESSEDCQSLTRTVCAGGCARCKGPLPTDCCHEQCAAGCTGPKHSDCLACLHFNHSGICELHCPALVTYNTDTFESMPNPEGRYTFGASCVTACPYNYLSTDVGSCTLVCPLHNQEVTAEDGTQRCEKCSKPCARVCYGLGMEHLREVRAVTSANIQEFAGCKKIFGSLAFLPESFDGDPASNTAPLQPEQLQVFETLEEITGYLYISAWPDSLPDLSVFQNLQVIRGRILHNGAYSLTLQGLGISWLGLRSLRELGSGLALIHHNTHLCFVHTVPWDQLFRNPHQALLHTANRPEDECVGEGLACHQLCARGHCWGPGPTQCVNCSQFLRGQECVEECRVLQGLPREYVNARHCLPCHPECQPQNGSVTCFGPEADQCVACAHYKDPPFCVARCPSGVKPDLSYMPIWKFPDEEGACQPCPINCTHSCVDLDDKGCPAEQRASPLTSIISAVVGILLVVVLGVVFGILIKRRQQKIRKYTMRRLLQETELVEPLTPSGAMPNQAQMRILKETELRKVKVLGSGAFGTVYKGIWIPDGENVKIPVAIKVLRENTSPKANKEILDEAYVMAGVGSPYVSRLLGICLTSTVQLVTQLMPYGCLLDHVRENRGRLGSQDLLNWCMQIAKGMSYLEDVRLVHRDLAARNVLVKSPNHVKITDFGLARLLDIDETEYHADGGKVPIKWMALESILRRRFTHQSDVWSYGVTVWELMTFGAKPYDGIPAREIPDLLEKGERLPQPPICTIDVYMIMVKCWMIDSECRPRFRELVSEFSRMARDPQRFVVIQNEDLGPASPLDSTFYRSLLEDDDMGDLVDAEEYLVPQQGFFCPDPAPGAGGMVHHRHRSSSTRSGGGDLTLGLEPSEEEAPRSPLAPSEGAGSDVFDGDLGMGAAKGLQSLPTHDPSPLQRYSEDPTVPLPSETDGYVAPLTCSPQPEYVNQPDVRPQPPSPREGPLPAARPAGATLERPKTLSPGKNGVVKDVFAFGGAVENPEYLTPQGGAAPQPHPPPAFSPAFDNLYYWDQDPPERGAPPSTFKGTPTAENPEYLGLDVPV
Chain of kinases (KINOMEscan panel) (Homo sapiens, UniProt P15056) (P15056 whole entry): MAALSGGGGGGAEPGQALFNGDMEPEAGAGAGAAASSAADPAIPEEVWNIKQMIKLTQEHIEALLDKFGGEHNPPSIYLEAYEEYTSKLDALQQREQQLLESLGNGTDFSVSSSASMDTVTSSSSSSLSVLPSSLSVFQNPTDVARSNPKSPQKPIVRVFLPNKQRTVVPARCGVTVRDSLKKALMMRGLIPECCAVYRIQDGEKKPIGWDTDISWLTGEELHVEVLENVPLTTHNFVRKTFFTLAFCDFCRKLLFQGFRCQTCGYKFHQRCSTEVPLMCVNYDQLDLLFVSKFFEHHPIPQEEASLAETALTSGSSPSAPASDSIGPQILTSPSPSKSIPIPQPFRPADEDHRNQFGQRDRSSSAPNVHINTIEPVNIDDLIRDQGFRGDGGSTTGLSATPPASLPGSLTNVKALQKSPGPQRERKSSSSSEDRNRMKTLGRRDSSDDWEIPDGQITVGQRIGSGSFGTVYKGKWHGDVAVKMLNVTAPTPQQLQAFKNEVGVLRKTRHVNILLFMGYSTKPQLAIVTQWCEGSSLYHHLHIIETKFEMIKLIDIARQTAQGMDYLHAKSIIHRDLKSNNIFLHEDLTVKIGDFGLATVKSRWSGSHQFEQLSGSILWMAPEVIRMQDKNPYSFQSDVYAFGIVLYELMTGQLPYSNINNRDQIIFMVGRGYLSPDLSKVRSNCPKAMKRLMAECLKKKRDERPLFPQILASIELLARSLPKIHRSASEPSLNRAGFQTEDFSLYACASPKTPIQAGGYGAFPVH

| SMILES | KINOMEscan ABL1(Q252H)-nonphosphorylated [1] | KINOMEscan ABL1(Q252H)-phosphorylated [1] | KINOMEscan RIPK4 [2] | KINOMEscan IKBKB/IKK-beta [3] | KINOMEscan ERBB2 [4] | KINOMEscan PFCDPK1(P.falciparum) [5] | KINOMEscan EPHA5 [6] | KINOMEscan BRAF [7] | KINOMEscan PAK4 [8] | KINOMEscan CAMKK2 [9] |
| --- | --- | --- | --- | --- | --- | --- | --- | --- | --- | --- |
| Cc1cccc(-c2nc(Nc3ccc4nn(C)cc4c3)c3ccccc3n2)n1 [NK167] | 0 | 0 | 0 | 5 | 0 | 0 | 0 | 0 | 0 | 6 |
| Cc1cccc(-c2nc(N(C)c3ccc4ncsc4c3)c3ccccc3n2)n1 [NK-161] | 0 | 0 | 0 | 25 | 0 | 0 | 9 | 0 | 0 | 9 |
